In brackets after ≈: the same amount, converted by molar mass.
How the values were obtained:
[1] = system: Bacillus subtilis; experiment: Bactericidal activity against Bacillus subtilis MTCC 121 after 24 hrs by serial dilution method; format: functional; conditions: MTCC 121, 24 h
[2] = system: Pseudomonas aeruginosa; experiment: Antimicrobial activity against Pseudomonas aeruginosa MTCC 2453 after 24 hrs by well diffusion method; format: functional; conditions: MTCC 2453, 24 h
[3] = system: Micrococcus luteus; experiment: Bactericidal activity against Micrococcus luteus MTCC 2470 after 24 hrs by serial dilution method; format: functional; conditions: MTCC 2470, 24 h
[4] = system: Bacillus subtilis; experiment: Antibiofilm activity against Bacillus subtilis MTCC 121 after 24 hrs by crystal violet staining based assay; format: functional, organism-based; conditions: MTCC 121, 24 h
[5] = Cytotoxicity against human PC3 cells after 72 hrs by XTT assay; format: functional, cell-based; conditions: PC-3, 72 h
[6] = system: Bacillus subtilis; experiment: Antimicrobial activity against Bacillus subtilis MTCC 121 after 24 hrs by well diffusion method; format: functional; conditions: MTCC 121, 24 h
[7] = system: Escherichia coli; experiment: Antimicrobial activity against Escherichia coli MTCC 739 after 24 hrs by well diffusion method; format: functional; conditions: MTCC 739, 24 h
[8] = system: A549; experiment: Selectivity ratio of IC50 for human PC3 cells to IC50 for human A549 cells; format: functional
[9] = system: Staphylococcus aureus; experiment: Antibiofilm activity against Staphylococcus aureus MTCC 96 after 24 hrs by crystal violet staining based assay; format: functional, organism-based; conditions: MTCC 96, 24 h
[10] = system: Staphylococcus aureus; experiment: Bactericidal activity against Staphylococcus aureus MLS16 MTCC 2940 after 24 hrs by serial dilution method; format: functional; conditions: MLS16 MTCC 2940, 24 h
[11] = system: Micrococcus luteus; experiment: Antimicrobial activity against Micrococcus luteus MTCC 2470 after 24 hrs by well diffusion method; format: functional; conditions: MTCC 2470, 24 h
[12] = system: Raoultella planticola; experiment: Antibiofilm activity against Klebsiella planticola MTCC 530 after 24 hrs by crystal violet staining based assay; format: functional, organism-based; conditions: MTCC 530, 24 h
[13] = system: Staphylococcus aureus; experiment: Bactericidal activity against Staphylococcus aureus MTCC 96 after 24 hrs by serial dilution method; format: functional; conditions: MTCC 96, 24 h
[14] = system: Raoultella planticola; experiment: Bactericidal activity against Klebsiella planticola MTCC 530 after 24 hrs by serial dilution method; format: functional; conditions: MTCC 530, 24 h
[15] = system: Micrococcus luteus; experiment: Antibiofilm activity against Micrococcus luteus MTCC 2470 after 24 hrs by crystal violet staining based assay; format: functional, organism-based; conditions: MTCC 2470, 24 h
[16] = system: Staphylococcus aureus; experiment: Antimicrobial activity against Staphylococcus aureus MLS16 MTCC 2940 after 24 hrs by well diffusion method; format: functional; conditions: MLS16 MTCC 2940, 24 h
[17] = system: A549; experiment: Cytotoxicity against human A549 cells after 72 hrs by XTT assay; format: functional, cell-based; conditions: A549, 72 h
[18] = system: Candida albicans; experiment: Antimicrobial activity against Candida albicans MTCC 3017 after 24 hrs by well diffusion method; format: functional; conditions: MTCC 3017, 24 h
[19] = system: Staphylococcus aureus; experiment: Antibiofilm activity against Staphylococcus aureus MLS16 MTCC 2940 after 24 hrs by crystal violet staining based assay; format: functional, organism-based; conditions: MLS16 MTCC 2940, 24 h
[20] = system: Raoultella planticola; experiment: Antimicrobial activity against Klebsiella planticola MTCC 530 after 24 hrs by well diffusion method; format: functional; conditions: MTCC 530, 24 h
[21] = system: Staphylococcus aureus; experiment: Antimicrobial activity against Staphylococcus aureus MTCC 96 after 24 hrs by well diffusion method; format: functional; conditions: MTCC 96, 24 h
[22] = system: Candida albicans; experiment: Fungicidal activity against Candida albicans MTCC 1637 after 24 hrs by serial dilution method; format: functional; conditions: MTCC 1637, 24 h
[23] = system: Candida albicans; experiment: Antimicrobial activity against Candida albicans MTCC 854 after 24 hrs by well diffusion method; format: functional; conditions: MTCC 854, 24 h
[24] = system: Nakaseomyces glabratus; experiment: Fungicidal activity against Candida glabrata MTCC 3019 after 24 hrs by serial dilution method; format: functional; conditions: MTCC 3019, 24 h
[25] = system: Candida albicans; experiment: Antimicrobial activity against Candida albicans MTCC 3958 after 24 hrs by well diffusion method; format: functional; conditions: MTCC 3958, 24 h
[26] = system: Candida parapsilosis; experiment: Antimicrobial activity against Candida parapsilosis MTCC 1744 after 24 hrs by well diffusion method; format: functional; conditions: Lodderomyces parapsilosis, MTCC 1744, 24 h
[27] = system: Candida albicans; experiment: Antimicrobial activity against Candida albicans MTCC 227 after 24 hrs by well diffusion method; format: functional; conditions: MTCC 227, 24 h
[28] = system: Nakaseomyces glabratus; experiment: Antimicrobial activity against Candida glabrata MTCC 3019 after 24 hrs by well diffusion method; format: functional; conditions: MTCC 3019, 24 h
[29] = system: Candida albicans; experiment: Antimicrobial activity against Candida albicans MTCC 3018 after 24 hrs by well diffusion method; format: functional; conditions: MTCC 3018, 24 h
[30] = system: Candida albicans; experiment: Fungicidal activity against Candida albicans MTCC 854 after 24 hrs by serial dilution method; format: functional; conditions: MTCC 854, 24 h
[31] = system: Candida parapsilosis; experiment: Fungicidal activity against Candida parapsilosis MTCC 1744 after 24 hrs by serial dilution method; format: functional; conditions: Lodderomyces parapsilosis, MTCC 1744, 24 h
[32] = system: Pichia kudriavzevii; experiment: Fungicidal activity against Candida krusei MTCC 3020 after 24 hrs by serial dilution method; format: functional; conditions: MTCC 3020, 24 h
[33] = system: Candida albicans; experiment: Antimicrobial activity against Candida albicans MTCC 7315 after 24 hrs by well diffusion method; format: functional; conditions: MTCC 7315, 24 h
[34] = system: Candida albicans; experiment: Antimicrobial activity against Candida albicans MTCC 183 after 24 hrs by well diffusion method; format: functional; conditions: MTCC 183, 24 h
[35] = system: Candida albicans; experiment: Fungicidal activity against Candida albicans MTCC 3958 after 24 hrs by serial dilution method; format: functional; conditions: MTCC 3958, 24 h
[36] = system: Candida albicans; experiment: Fungicidal activity against Candida albicans MTCC 227 after 24 hrs by serial dilution method; format: functional; conditions: MTCC 227, 24 h
[37] = system: [Candida] aaseri; experiment: Antimicrobial activity against Candida aaseri MTCC 1962 after 24 hrs by well diffusion method; format: functional; conditions: Yamadazyma aaseri, MTCC 1962, 24 h
[38] = system: Pichia sporocuriosa; experiment: Fungicidal activity against Issatchenkia hanoiensis MTCC 4755 after 24 hrs by serial dilution method; format: functional; conditions: MTCC 4755, 24 h
[39] = system: Candida albicans; experiment: Fungicidal activity against Candida albicans MTCC 3018 after 24 hrs by serial dilution method; format: functional; conditions: MTCC 3018, 24 h
[40] = system: Pichia kudriavzevii; experiment: Antimicrobial activity against Candida krusei MTCC 3020 after 24 hrs by well diffusion method; format: functional; conditions: MTCC 3020, 24 h
[41] = system: [Candida] aaseri; experiment: Fungicidal activity against Candida aaseri MTCC 1962 after 24 hrs by serial dilution method; format: functional; conditions: Yamadazyma aaseri, MTCC 1962, 24 h
[42] = system: Candida albicans; experiment: Fungicidal activity against Candida albicans MTCC 183 after 24 hrs by serial dilution method; format: functional; conditions: MTCC 183, 24 h
[43] = system: Candida albicans; experiment: Fungicidal activity against Candida albicans MTCC 3017 after 24 hrs by serial dilution method; format: functional; conditions: MTCC 3017, 24 h
[44] = system: Candida albicans; experiment: Antimicrobial activity against Candida albicans MTCC 4748 after 24 hrs by well diffusion method; format: functional; conditions: MTCC 4748, 24 h
[45] = system: Candida albicans; experiment: Antimicrobial activity against Candida albicans MTCC 1637 after 24 hrs by well diffusion method; format: functional; conditions: MTCC 1637, 24 h
[46] = system: Pichia sporocuriosa; experiment: Antimicrobial activity against Issatchenkia hanoiensis MTCC 4755 after 24 hrs by well diffusion method; format: functional; conditions: MTCC 4755, 24 h
[47] = system: Candida albicans; experiment: Fungicidal activity against Candida albicans MTCC 4748 after 24 hrs by serial dilution method; format: functional; conditions: MTCC 4748, 24 h
[48] = system: Candida albicans; experiment: Fungicidal activity against Candida albicans MTCC 7315 after 24 hrs by serial dilution method; format: functional; conditions: MTCC 7315, 24 h

O=C1C=C(N2CC2)C(=O)C(c2cc(-c3ccc(C(=O)N4CCCCC4)s3)on2)=C1N1CC1
MBC [1]: 15.6 µg/mL (≈ 34.6 µM) | MIC [2]: > 125 µg/mL | MBC [3]: 125 µg/mL (≈ 277 µM) | IC50 [4]: 2800 nM | IC50 [5]: 21.3 µM | MIC [6]: 3.9 µg/mL (≈ 8.66 µM) | MIC [7]: > 125 µg/mL | Ratio IC50 [8]: 12 | IC50 [9]: 11.2 µM | MBC [10]: 62.5 µg/mL (≈ 139 µM) | MIC [11]: 62.5 µg/mL (≈ 139 µM) | IC50 [12]: 5.4 µM | MBC [13]: 31.2 µg/mL (≈ 69.3 µM) | MBC [14]: 15.6 µg/mL (≈ 34.6 µM) | IC50 [15]: 35.6 µM | MIC [16]: 15.6 µg/mL (≈ 34.6 µM) | IC50 [17]: 1700 nM | MIC [18]: 15.6 µg/mL (≈ 34.6 µM) | IC50 [19]: 9.8 µM | MIC [20]: 7.8 µg/mL (≈ 17.3 µM) | MIC [21]: 15.6 µg/mL (≈ 34.6 µM)

CCCN(C)C(=O)c1ccc(-c2cc(C3=C(N4CC4)C(=O)C=C(N4CC4)C3=O)no2)s1
MBC [1]: 7.8 µg/mL (≈ 17.8 µM) | MFC [22]: 125 µg/mL (≈ 285 µM) | MIC [2]: > 125 µg/mL | MIC [23]: 62.5 µg/mL (≈ 143 µM) | MBC [3]: 31.2 µg/mL (≈ 71.2 µM) | MFC [24]: 31.2 µg/mL (≈ 71.2 µM) | IC50 [4]: 2200 nM | IC50 [5]: 0.6 µM | MIC [25]: 62.5 µg/mL (≈ 143 µM) | MIC [26]: 15.6 µg/mL (≈ 35.6 µM) | MIC [6]: 3.9 µg/mL (≈ 8.89 µM) | MIC [27]: 62.5 µg/mL (≈ 143 µM) | MIC [28]: 15.6 µg/mL (≈ 35.6 µM) | MIC [29]: 31.2 µg/mL (≈ 71.2 µM) | MIC [7]: > 125 µg/mL | MFC [30]: 125 µg/mL (≈ 285 µM) | MFC [31]: 31.2 µg/mL (≈ 71.2 µM) | MFC [32]: 31.2 µg/mL (≈ 71.2 µM) | MIC [33]: 15.6 µg/mL (≈ 35.6 µM) | MIC [34]: 31.2 µg/mL (≈ 71.2 µM) | MFC [35]: 125 µg/mL (≈ 285 µM) | IC50 [9]: 4.6 µM | MFC [36]: 125 µg/mL (≈ 285 µM) | MBC [10]: 31.2 µg/mL (≈ 71.2 µM) | MIC [37]: 7.8 µg/mL (≈ 17.8 µM) | MIC [11]: 15.6 µg/mL (≈ 35.6 µM) | MFC [38]: 62.5 µg/mL (≈ 143 µM) | MFC [39]: 125 µg/mL (≈ 285 µM) | MIC [40]: 15.6 µg/mL (≈ 35.6 µM) | MFC [41]: 15.6 µg/mL (≈ 35.6 µM) | IC50 [12]: 3.5 µM | MBC [13]: 15.6 µg/mL (≈ 35.6 µM) | MFC [42]: 62.5 µg/mL (≈ 143 µM) | MFC [43]: 31.2 µg/mL (≈ 71.2 µM) | MBC [14]: 15.6 µg/mL (≈ 35.6 µM) | IC50 [15]: 8.9 µM | MIC [44]: 31.2 µg/mL (≈ 71.2 µM) | MIC [45]: 62.5 µg/mL (≈ 143 µM) | MIC [16]: 15.6 µg/mL (≈ 35.6 µM) | MIC [46]: 15.6 µg/mL (≈ 35.6 µM) | MFC [47]: 62.5 µg/mL (≈ 143 µM) | IC50 [17]: 2700 nM | MIC [18]: 7.8 µg/mL (≈ 17.8 µM) | IC50 [19]: 10.6 µM | MIC [20]: 7.8 µg/mL (≈ 17.8 µM) | MIC [21]: 7.8 µg/mL (≈ 17.8 µM) | MFC [48]: 31.2 µg/mL (≈ 71.2 µM)

Source: ChEMBL document CHEMBL3808371, “Design, synthesis and biological evaluation of diaziridinyl quinone isoxazole hybrids” (Eur J Med Chem, 2016)
